Measured values reported in patent US11045448B2, “Piperidines as covalent menin inhibitors” (THE REGENTS OF THE UNIVERSITY OF MICHIGAN, priority 2017, dated 2021).
Where two headings read alike, the source gives them in different places.

Assays:
menin protein [1] = molecular target: T1, menin protein (Homo sapiens (Human), UniProt O00255); assay: Fluorescence polarization (FP) competitive binding assay, menin binding affinity; details: menin protein 4 nM, probe 2 nM, room temperature 30 minutes
Experimental: A fluorescence polarization (FP) competitive binding assay was used to determine the binding affinities of representative menin inhibitors. A FAM labeled fluorescent probe was designed and synthesized based on a MLL1 peptide (FAM-MM2). Equilibrium dissociation constant (Kd) value of FAM-MM2 to menin protein was determined from protein saturation experiments by monitoring the total fluorescence polarization of mixtures composed with the fluorescent probe at a fixed concentration and the protein with increasing concentrations up to full saturation. Serial dilutions of the protein were mixed with FAM-MM2 to a final volume of 200 μl in the assay buffer (PBS with 0.02% Bovine γ-Globulin and 4% DMSO. 0.01% Triton X-100 was added right before assays). Final FAM-MM2 concentration was 2 nM. Plates were incubated at room temperature for 30 minutes with gentle shaking to assure equilibrium. FP values in millipolarization units (mP) were measured using the Infinite M-1000 plate reader (Tecan U.S., Research Triangle Park, N.C.) in Microfluor 1 96-well, black, v-bottom plates (Thermo Scientific, Waltham, Mass.) at an excitation wavelength of 485 nm and an emission wavelength of 530 nm.
The IC50, see Table 3, of representative Compounds of the Disclosure were determined in a competitive binding experiment. Mixtures of 5 μl of the tested compounds in DMSO and 195 μl of preincubated protein/probe complex solution in the assay buffer were added into assay plates which were incubated at room temperature for 30 minutes with gentle shaking. Final concentration of the menin protein was 4 nM, and final probe concentration is 2 nM. Negative controls containing protein/probe complex only (equivalent to 0% inhibition), and positive controls containing only free probes (equivalent to 100% inhibition), were included in each assay plate. FP values were measured as described above. IC50 values were determined by nonlinear regression fitting of the competition curves.

MV4-11 = assay: 7-day proliferation assay (WST-8), MV4-11; assay type: cell-based; details: Homo sapiens, 168 h, 7 days, read-out: IC50 in cell growth inhibition
Experimental: (§1) The effect of representative Compounds of the Disclosure on cell viability was determined in a 7-day proliferation assay. Cells were maintained in the appropriate culture medium with 10% FBS at 37° C. and an atmosphere of 5% CO2.
(§2) Cells were seeded in 96-well flat bottom (Corning COSTAR, Corning, N.Y., cat #3595) at a density of 2,000-3,000 cells/well in 100 μl of culture medium. Compounds were serially diluted in the appropriate medium, and 100 μl of the diluted compounds were added to the appropriate wells of the cell plate. After the addition of compounds, the cells were incubated at 37° C. in an atmosphere of 5% CO2 for 7 days. Cell viability was determined using the WST (2-(2-methoxy-4-nitrophenyl)-3-(4-nitrophenyl)-5-(2,4-disulfophenyl)-2H-tetrazolium, monosodium salt) Cell Counting-8 Kit (Dojindo Molecular Technologies, Inc., Rockville, Md.) according to the manufacturers' instructions.
(§3) WST-8 reagent was added to each well at a final concentration of 10% (v/v), and then the plates were incubated at 37° C. for 1-2 hours for color development. The absorbance was measured at 450 nm using a SPECTRAmax PLUS plate reader (Molecular Devices, Sunnyvale, Calif.). The readings were normalized to the DMSO-treated cells and the half maximal inhibitory concentration (IC50) was calculated by nonlinear regression (four parameters sigmoid fitted with variable slope, least squares fit, and no constraint) analysis using the GraphPad Prism 5 software (GraphPad Software, La Jolla, Calif.).

MOLM13 = assay: 7-day proliferation assay (WST-8), MOLM13; assay type: cell-based; details: Homo sapiens, MOLM-13, 168 h, 7 days, read-out: IC50 in cell growth inhibition
Experimental: as §1, §2, §3

MOLM14 = assay: 7-day proliferation assay (WST-8), MOLM14; assay type: cell-based; details: Homo sapiens, MOLM-14, 168 h; Table 4; MOLM14, AML, MLL/AF9; 7 days; read-out: IC50 in cell growth inhibition
Experimental: as §1, §2, §3

SEM cells = assay: 7-day proliferation assay (WST-8), SEM; assay type: cell-based; details: 7 days, read-out: IC50 in cell growth inhibition
Experimental: as §1, §2, §3

MonoMac6 = assay: 7-day proliferation assay (WST-8), MonoMac6; assay type: cell-based; details: Homo sapiens, MONO-MAC-6, 168 h, 7 days, read-out: IC50 in cell growth inhibition
Experimental: as §1, §2, §3

RS4-11 = assay: 7-day proliferation assay (WST-8), RS4-11; assay type: cell-based; details: Homo sapiens, 7 days, read-out: IC50 in cell growth inhibition
Experimental: as §1, §2, §3

menin protein [2] = molecular target: T1, menin protein; assay: Covalent binding to menin protein by mass spectroscopy; details: incubated with recombinant human menin, compared to menin apo
Experimental: No. 1 and Cpd. […] Recombinant human menin protein was incubated with Cpd. No. 1 or Cpd. No. 3 and compared to menin protein alone (Menin apo).

MOLM-4 (MLL-AF9) = assay: 7-day proliferation assay (WST-8), MOLM-4; assay type: cell-based; details: 168 h, Table 6, 7 days, read-out: IC50 in cell growth inhibition
Experimental: as §1, §2
(§4) WST-8 reagent was added to each well at a final concentration of 10% (v/v), and then the plates were incubated at 37° C. for 1-2 hours for color development. The absorbance was measured at 450 nm using a SPECTRAmax PLUS plate reader (Molecular Devices, Sunnyvale, Calif.). […]

K562 (no MLL fusion) = assay: 7-day proliferation assay (WST-8), K562; assay type: cell-based; details: Homo sapiens, 168 h, Table 6, 7 days, read-out: IC50 in cell growth inhibition
Experimental: as §1, §2, §4

MOLM-16 (no MLL fusion) = assay: 7-day proliferation assay (WST-8), MOLM-16; assay type: cell-based; details: MOLM16, 168 h, Table 6, 7 days, read-out: IC50 in cell growth inhibition
Experimental: as §1, §2, §4

SKM-1 (no MLL fusion) = assay: 7-day proliferation assay (WST-8), SKM-1; assay type: cell-based; details: Homo sapiens, 168 h, Table 6, 7 days, read-out: IC50 in cell growth inhibition
Experimental: as §1, §2, §4

HL-60 (no MLL fusion) = assay: 7-day proliferation assay (WST-8), HL-60; assay type: cell-based; details: Homo sapiens, 168 h, Table 6, 7 days, read-out: IC50 in cell growth inhibition
Experimental: as §1, §2, §4

[3] = system: MEIS1 and HOXA gene expression in MV4;11 cell lines; assay: MEIS1 and HOXA gene expression by RT-PCR in MV4;11; assay type: cell-based; details: for MEIS1 and HOXA gene expression (mRNA levels of MEIS1, HOXA9 and HOXA11): different concentrations
Experimental: FIG. 4 is a bar graph showing that Cpd. No. 57 suppresses MEIS1 and HOXA gene expression in MV4;11 cell lines. Cells were treated with different concentrations of Cpd. No. 57 for 24 h. mRNA levels of MEIS1, HOXA9 and HOXA11 were determined by RT-PCR. *(p<0.05), **(p<0.01).
FIG. 5 is a bar graph showing that Cpd. No. 57 suppresses MEIS1 and HOXA gene expression in MV4;11 cell lines. Cells were treated with different concentrations of Cpd. No. 57 for 6 h. mRNA levels of MEIS1, HOXA9 and HOXA11 were determined by RT-PCR. *(p<0.05), **(p<0.01).
(§5) No. 57 suppresses MEIS1 and HOXA gene expression in MV4;11 and MOLM13 cell lines.

[4] = system: MEIS1 and HOXA gene expression in MOLM13 cell lines; assay: MEIS1 and HOXA gene expression by RT-PCR in MOLM13; assay type: cell-based
Experimental: FIG. 6 is a bar graph showing that Cpd. No. 57 suppresses MEIS1 and HOXA gene expression in MOLM13 cell lines. Cells were treated with different concentrations of Cpd. No. 57 for 24 h. mRNA levels of MEIS1, HOXA9 and HOXA11 were determined by RT-PCR. *(p<0.05), **(p<0.01).
as §5

[5] = Table 4, MonoMac6, AML, MLL/AF9
[6] = 168 h, Table 4, RS4-11, B-lineage ALL, MLL/AF4

T1 sequence (O00255 whole entry): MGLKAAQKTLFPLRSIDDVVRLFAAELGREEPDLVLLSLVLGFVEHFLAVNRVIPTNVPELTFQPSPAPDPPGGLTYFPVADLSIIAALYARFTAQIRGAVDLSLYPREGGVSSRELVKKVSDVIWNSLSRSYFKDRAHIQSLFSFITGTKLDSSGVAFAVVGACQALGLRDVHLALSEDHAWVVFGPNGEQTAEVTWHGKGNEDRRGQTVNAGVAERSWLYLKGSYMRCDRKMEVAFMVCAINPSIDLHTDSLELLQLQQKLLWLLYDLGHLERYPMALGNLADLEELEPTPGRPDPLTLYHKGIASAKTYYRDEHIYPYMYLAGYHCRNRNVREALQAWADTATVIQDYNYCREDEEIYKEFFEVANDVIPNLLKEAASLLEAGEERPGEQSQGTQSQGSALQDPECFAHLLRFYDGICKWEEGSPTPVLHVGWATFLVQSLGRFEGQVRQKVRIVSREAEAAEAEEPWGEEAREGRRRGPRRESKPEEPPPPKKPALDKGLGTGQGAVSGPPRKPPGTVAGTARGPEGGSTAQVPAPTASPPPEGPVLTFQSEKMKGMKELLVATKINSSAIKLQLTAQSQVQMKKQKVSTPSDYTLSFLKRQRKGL

Compound	IC50 (menin protein [1]) [nM]	IC50 (MV4-11; Table 4, MV4-11, AML, MLL/AF4) [nM]	IC50 (MOLM13; Table 4, MOLM13, AML, MLL/AF9) [nM]	IC50 (MOLM14) [nM]	IC50 (RS4-11; [6]) [nM]	IC50 (SEM cells; MLL-AF9, 168 h, Table 4) [nM]	IC50 (MonoMac6; [5]) [nM]	other results
C=CC(=O)N1CC(S(=O)(=O)c2ccc(N3CC(CN4CCC([C@@](C#N)(c5cccc(F)c5)[C@H]5CCC[C@@H]5NC(=O)OC)CC4)C3)cc2)C1 [Cpd. No. 6, methyl ((1S,2R)-2-((S)-(1-((1-(4-((1-acryloylazetidin-3-yl)sulfonyl)phenyl)azetidin-3-yl)methyl)piperidin-4-yl)(cyano)(3-fluorophenyl)methyl)cyclopentyl)carbamate]	3	44.8	154	180	62.1	79	764	–
C=CC(=O)N1CC(S(=O)(=O)c2ccc(N3CC(CN4CCC([C@@](C#N)(c5cccc(F)c5)[C@H]5CCC[C@@H]5OC(=O)NC)CC4)C3)cc2)C1 [Cpd. No. 1, (1S,2R)-2-((S)-(1-((1-(4-((1-acryloylazetidin-3-yl)sulfonyl)phenyl)azetidin-3-yl)methyl)piperidin-4-yl)(cyano)(3-fluorophenyl)methyl)cyclopentyl methylcarbamate]	5	4.3	27.2	41	8.8	10.9	84	Covalent binding with menin protein (mass spectroscopy) (menin protein [2]): covalently bind with menin protein
C=CC(=O)Nc1cccc(S(=O)(=O)c2ccc(N3CC(CN4CCC([C@@](C#N)(c5cccc(F)c5)[C@H]5CCC[C@@H]5OC(=O)NC)CC4)C3)cc2)c1 [Cpd. No. 3, (1S,2R)-2-((S)-(1-((1-(4-((3-acrylamidophenyl)sulfonyl)phenyl)azetidin-3-yl)methyl)piperidin-4-yl)(cyano)(3-fluorophenyl)methyl)cyclopentyl methylcarbamate]	3	–	–	–	–	–	–	Covalent binding with menin protein (mass spectroscopy) (menin protein [2]): covalently bind with menin protein
COC(=O)N[C@H]1CCC[C@@H]1[C@](C#N)(c1cccc(F)c1)C1CCN(CC2CN(c3ccc(S(=O)(=O)C4CN(C(=O)/C=C/CN(C)C)C4)cc3)C2)CC1 [Cpd. No. 57, methyl ((1S,2R)-2-((S)-cyano(1-((1-(4-((1-((E)-4-(dimethylamino)but-2-enoyl)azetidin-3-yl)sulfonyl)phenyl)azetidin-3-yl)methyl)piperidin-4-yl)(3-fluorophenyl)methyl)cyclopentyl)carbamate]	3	–	–	–	–	–	–	IC50 (MV4-11; Table 5, MV4-11): 2.3 nM; IC50 (MOLM13; Table 5, MOLM13): 15.4 nM; IC50 (SEM cells; 168 h, Table 6, SEM (MLL-AF4)): 18 nM; IC50 (MonoMac6; Table 6, MonoMac6 (MLL-AF9)): 10.3 nM; IC50 (RS4-11; RS4-11, 168 h, Table 6): 9.4 nM; IC50 (MOLM-4 (MLL-AF9)): 31.3 nM; IC50 (K562 (no MLL fusion)): 4500 nM; IC50 (MOLM-16 (no MLL fusion)): 6500 nM; IC50 (SKM-1 (no MLL fusion)): 900 nM; IC50 (HL-60 (no MLL fusion)): 1600 nM; MEIS1 and HOXA gene expression (mRNA levels of MEIS1, HOXA9 and HOXA11) ([3]; MV4;11, 6 h, RT-PCR (FIG. 5)): suppresses; MEIS1 and HOXA gene expression (mRNA levels of MEIS1, HOXA9 and HOXA11) ([3]; MV4;11, 24 h, RT-PCR (FIG. 4)): suppresses; MEIS1 and HOXA gene expression ([3]; MV4;11, summary sentence for FIG. 4, FIG. 5): suppresses; MEIS1 and HOXA gene expression (mRNA levels of MEIS1, HOXA9 and HOXA11) ([4]; MOLM13, 24 h, different concentrations, RT-PCR (FIG. 6)): suppresses; MEIS1 and HOXA gene expression ([4]; MOLM13, summary sentence for FIG. 6): suppresses
COC(=O)N[C@H]1CCC[C@@H]1[C@@](C#N)(c1cccc(F)c1)C1CCN(CC2CN(c3ccc(S(=O)(=O)C4CN(C(=O)/C=C/CN(C)C)C4)cc3)C2)CC1 [Cpd. No. 60, methyl ((1S,2R)-2-((R)-cyano(1-((1-(4-((1-((E)-4-(dimethylamino)but-2-enoyl)azetidin-3-yl)sulfonyl)phenyl)azetidin-3-yl)methyl)piperidin-4-yl)(3-fluorophenyl)methyl)cyclopentyl)carbamate]	> 2000	–	–	–	–	–	–	IC50 (MV4-11; Table 5, MV4-11): 525 nM; IC50 (MOLM13; Table 5, MOLM13): 1400 nM

Continued, in another order:

IC50 (menin protein [1]) [nM]	IC50 (MV4-11; Table 4, MV4-11, AML, MLL/AF4) [nM]	IC50 (MOLM13; Table 4, MOLM13, AML, MLL/AF9) [nM]	IC50 (MOLM14) [nM]	IC50 (RS4-11; [6]) [nM]	Compound	IC50 (SEM cells; MLL-AF9, 168 h, Table 4) [nM]	IC50 (MonoMac6; [5]) [nM]	other results
2	8.3	41.4	78.8	10.7	C=CC(=O)Nc1cccc(S(=O)(=O)c2ccc(N3CC(CN4CCC([C@@](C#N)(c5cccc(F)c5)[C@H]5CCC[C@@H]5NC(=O)OC)CC4)C3)cc2)c1 [Cpd. No. 5, methyl ((1S,2R)-2-((S)-(1-((1-(4-((3-acrylamidophenyl)sulfonyl)phenyl)azetidin-3-yl)methyl)piperidin-4-yl)(cyano)(3-fluorophenyl)methyl)cyclopentyl)carbamate]	39.6	156	–
3	2.2	16.9	17.6	5.9	C=CC(=O)Nc1cccc(S(=O)(=O)c2ccc(N3CC(CN4CCC([C@@](Cn5ccnc5CC)(c5cccc(F)c5)[C@H]5CCC[C@@H]5NC(=O)OC)CC4)C3)cc2)c1 [Cpd. No. 7, methyl ((1S,2R)-2-((S)-1-(1-((1-(4-((3-acrylamidophenyl)sulfonyl)phenyl)azetidin-3-yl)methyl)piperidin-4-yl)-2-(2-ethyl-1H-imidazol-1-yl)-1-(3-fluorophenyl)ethyl)cyclopentyl)carbamate]	4.7	67.7	–
